Laboratory results taken from patent US7615361B2, “Toxicity screening methods” (Ceetox, Inc., priority 2006, dated 2009).
≈ marks a conversion by molar mass, not a printed value. Read-outs that look alike come from different tables or passages of the source.

Key:
H4IIE cells [1] = experiment: Membrane lipid peroxidation (8-isoprostane ELISA); type: cell-based, rat
Procedure, shortened: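 Rat hepatoma H4IIE cells exposed to test compound prepared in complete culture medium; cells or supernatant harvested for oxidative-stress endpoints. Camptothecin and rotenone served as positive controls; group means from n=3-7.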

MTT reduction = type: cell-based, rat
Procedure, shortened: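 Cardiomyocytes from neonatal rats were exposed to the compound and cell function was monitored by tetrazolium (MTT) dye reduction. Values are group means over n=3-7.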

H4IIE cells [2] = experiment: Predicted Ctox from Tox-Panel; type: cell-based, rat; details: 24 HR, estimated sustained plasma concentration where toxicity would be expected in vivo
Procedure, shortened: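 Ctox is taken as the NOEL from 24 h concentration-response profiles in H4IIE cells, covering at least cell replication, mitochondrial function and membrane integrity. Each indicator is expressed as a percentage of the compound-free control. It estimates the sustained toxic plasma concentration in vivo.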

rat cardiomyocytes = experiment: Membrane lipid peroxidation (8-isoprostane ELISA); type: cell-based
Procedure, shortened: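 Neonatal rat cardiomyocytes exposed to the test compound, then cells or supernatant harvested for biochemical analysis of oxidative stress. Values are means of each exposure group (n=3-7).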

[3] = Solubility in culture medium (nephelometry); type: physicochemical; details: plasma or biological fluid, kinetic from dmso stock
Description: Solubility: The test compounds were prepared in DMSO and the appropriate amounts were then added to complete medium containing 10% bovine serum […] at 37° C. The samples were evaluated using a light scattering technique and a Nephaloskan instrument.
Solubility Assay: The test compounds were prepared in DMSO and the appropriate amounts were then added to complete medium containing 10% bovine serum at 37° C. The samples were evaluated using a light scattering technique and a Nephaloskan instrument.

[4] = MemTox membrane leakage (AK / α-GST); type: cell-based, rat
Procedure, shortened: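 Neonatal rat cardiomyocytes were dosed, and the culture medium was collected at the end of exposure to measure total leaked adenylate kinase (luminescence) and/or α-GST (ELISA, 450/650 nm). Percent dead cells was set against 1 mM digitonin as maximum release, then converted to percent live. Values are means of n=3-7.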

[5] = 37 °C, dosing medium with 20% serum, 37° C., CM 24 HR, read-out: Highest Soluble Concentration Tested
[6] = 37 °C, dosing medium with 20% serum, 37° C., H4IIE 24 HR, read-out: Highest Soluble Concentration Tested
[7] = dosing (complete culture) medium with 20% serum, dosing medium with 20% serum, 37° C., CM 24 HR, read-out: Highest Soluble Concentration Tested

| Structure (SMILES) | Membrane Lipid Peroxidation (H4IIE cells [1]; H4IIE, 24 HR) | Predicted Ctox (H4IIE cells [2]) | Membrane Lipid Peroxidation (rat cardiomyocytes; CM, 24 HR) | solubility [3, 5] | solubility [3, 6] | Membrane Lipid Peroxidation (H4IIE cells [1]; rat, 24 h) | CC50 at 24 h (MTT reduction; rat) | Membrane Lipid Peroxidation (rat cardiomyocytes; rat, 24 h) | CC50 at 24 h ([4]; rat) | solubility [3, 7] | further results |
| --- | --- | --- | --- | --- | --- | --- | --- | --- | --- | --- | --- |
| C=C(C)[C@H]1Cc2c(ccc3c2O[C@@H]2COc4cc(OC)c(OC)cc4[C@@H]2C3=O)O1 [ROTENONE, Rotenone] | 2 (2 = Concentration related increase with maximum values ≧15 pg/mL) | 0.03 µM | 3 (3 = Concentration related increase with a maximum value ≧30 pg/mL) | 100 µM (≈ 39.4 µg/mL) | 100 µM (≈ 39.4 µg/mL) |  |  |  |  |  | CC50 at 24 h (MTT reduction; rat cardiomyocytes (CM), 24 HR exposure, read-out: MTT TC50): 33 µM; solubility ([3]; 37 °C, culture media containing 20% serum, NRK 6 HR, read-out: Highest Soluble Concentration): 10 µM (≈ 3.94 µg/mL); solubility ([3]; 37 °C, culture media containing 20% serum, NRK 24 HR, read-out: Highest Soluble Concentration): 10 µM (≈ 3.94 µg/mL); solubility ([3]; 37 °C, dosing medium, 37° C., C32 24 HR, read-out: Highest Soluble Concentration): 10 µM (≈ 3.94 µg/mL); solubility ([3]; 37 °C, dosing medium, 37° C., HUVEC 24 HR, read-out: Highest Soluble Concentration): 10 µM (≈ 3.94 µg/mL); solubility ([3]; 37 °C, dosing medium, 37° C., NHEM 24 HR, read-out: Highest Soluble Concentration): 100 µM (≈ 39.4 µg/mL); solubility ([3]; 37 °C, dosing medium, 37° C., SK-MEL28 24 HR, run #2, read-out: Highest Soluble Concentration): 100 µM (≈ 39.4 µg/mL); solubility ([3]; 37 °C, dosing medium, 37° C., SK-MEL28 24 HR, read-out: Highest Soluble Concentration): 10 µM (≈ 3.94 µg/mL); solubility ([3]; 37 °C, dosing medium, 37° C., SK-MEL28 72 HR, run #2, read-out: Highest Soluble Concentration): 100 µM (≈ 39.4 µg/mL); solubility ([3]; 37 °C, dosing medium, 37° C., human hepatocytes 24 HR, read-out: Highest Soluble Concentration): 10 µM (≈ 3.94 µg/mL); CC50 at 24 h ([4]; rat cardiomyocytes (CM), 24 HR exposure, read-out: MemTox TC50): 56 µM |
| Cc1cccc(C)c1OCC(=O)N[C@@H](Cc1ccccc1)[C@@H](O)C[C@H](Cc1ccccc1)NC(=O)[C@H](C(C)C)N1CCCNC1=O [LOPINAVIR, lopinavir] |  | 60 µM |  | 50 µM (≈ 31.4 µg/mL) | 50 µM (≈ 31.4 µg/mL) | 0 | 72 µM | 0 | 76 µM |  |  |
| CC(=O)[C@]1(O)Cc2c(O)c3c(c(O)c2[C@@H](O[C@H]2C[C@H](N)[C@H](O)[C@H](C)O2)C1)C(=O)c1ccccc1C3=O [IDARUBICIN, idarubicin] |  | 1 µM |  |  |  | 0 | < 1 µM | 0 | < 1 µM | 20 µM (≈ 9.95 µg/mL) |  |
| CC[C@@]1(O)C(=O)OCc2c1cc1n(c2=O)Cc2cc3ccccc3nc2-1 [CAMPTOTHECIN, Camptothecin] | 1 (1 = Modest increase with maximum values ≦15 pg/mL) | 0.1 µM | 0 |  |  |  |  |  |  | 10 µM (≈ 3.48 µg/mL) | CC50 at 24 h (MTT reduction; neonatal rat cardiomyocytes, rat cardiomyocytes (CM), 24 HR exposure, read-out: MTT TC50): > 300 µM; solubility ([3]; culture medium with 20% serum, 37 °C, culture media containing 20% serum, NRK 6 HR, read-out: Highest Soluble Concentration): 50 µM (≈ 17.4 µg/mL); solubility ([3]; dosing medium (complete culture medium with serum), dosing medium, 37° C., SK-MEL28 24 HR, read-out: Highest Soluble Concentration): 10 µM (≈ 3.48 µg/mL); solubility ([3]; dosing medium, 37° C., HUVEC 24 HR, read-out: Highest Soluble Concentration): 10 µM (≈ 3.48 µg/mL); CC50 at 24 h ([4]; neonatal rat cardiomyocytes, rat cardiomyocytes (CM), 24 HR exposure, read-out: MemTox TC50): > 300 µM |
